Reference: patent publication US20100292292A1, “Treatment of Neurodegenerative Diseases Using Indatraline Analogs” (LINK MEDICINE CORPORATION, priority 2007, published 2010)
pIC50: −log10 of the molar value. “Also recorded” adds a separate entry of the source.

Key:
[1] = test system: α-synuclein-induced retinal degeneration in transgenic Drosophila (human A30P α-synuclein); experiment: Drosophila retinal assay; format: in vivo; details: transgenic Drosophila expressing human A30P α-synuclein in retina, drug in food
From the text: Human A30P α-synuclein expression was directed to the retina with the glass multimer reporter (GMR) promoter. The transgene induces progressive retinal degeneration. Dry food (Formula 4-24; Carolina Biological Supply) was rehydrated with water or an aqueous solution of drug. Drug concentration refers to the final concentration of compound in the aqueous solution. Transgenic female flies less than 12-hours-old were placed on either untreated or drug-embedded food. For analysis of retinal degeneration, fly heads were annealed to a glass microscope, then eyes were transilluminated following optical neutralization of the corneas with immersion oil and examined under a 100× lens (Franceschini, N., Pupil and pseudopupil in the compound eye of Drosophila. In Information processing in the visual system of Drosophila, Wehner, R., Ed. Springer: Berlin, 1972; pp 75-82; incorporated here in by reference). For quantitation, 20-50 ommatidia per eye of at least 12 eyes were examined per group. The percent normal ommatidia was calculated for each eye and averaged for each sample set. Indatraline suppressed α-synuclein-induced retinal degeneration (FIG. 26A).

[2] = target: alpha-synuclein (Homo sapiens, UniProt P37840); experiment: Solution NMR binding studies
From the text: Importantly, stabilization of such off-pathway conformers can reduce the rate of α-synuclein fibrillization. For instance, sequence changes that promote formation of helical conformers also reduce the rate of α-synuclein fibrillization. A novel screen was devised to identify small molecules capable of promoting off-pathway conformers of α-synuclein. A screen of 640 central nervous system (CNS-active) compounds, including many approved CNS drugs, identified an active compound, indatraline (INDAT), a monoamine reuptake inhibitor that has been widely used as a research tool.

[3] = target: T1, purified recombinant human α-synuclein (Homo sapiens, UniProt P37840); experiment: α-synuclein structure formation/aggregation in the presence of HFIP (Thioflavin T fluorescence, fluorescence polarization); format: binding; details: α-synuclein 20 μM, 25 mM Tris pH 8.0, 3.1% HFIP, room temperature, compound 50-400 μM, Thioflavin T fluorescence and/or fluorescence polarization
Experimental: HFIP induces rapid structure formation and aggregation of α-synuclein (Munishkina et al., Biochemistry 42:2720-30, 2003; Maiti, Apetri et al., J Am Chem Soc, 126:2399-408, 2004; each of which is incorporated herein by reference). Compounds were incubated with purified recombinant human α-synuclein (20 μM) in a buffer containing HFIP (25 mM Tris, pH 8.0, 3.1% HFIP) at room temperature. Structure formation was monitored by Thioflavin T fluorescence and fluorescence polarization. Thioflavin T fluorescence can be used to measure aggregation of amyloidogenic proteins, including α-synuclein (excitation, 440 nm; emission, 495 nm) (Naiki et al., Anal. Biochem., 177:244-9, 1989; Conway et al., Biochemistry, 39:2552-63, 2000; each of which is incorporated herein by reference). Average molecular size was monitored by fluorescence polarization using human α-synuclein covalently conjugated to Alexa Fluor 594 (excitation, 546 nm; emission, 620 nm). Assays were performed in a 384-well plate and readings taken directly from each well over time.

[4] = target: T1, purified recombinant human α-synuclein; experiment: α-synuclein aggregation in aqueous solution (Thioflavin T fluorescence, fluorescence polarization); format: biochemical; details: α-synuclein 70 μM, 20 mM Bis-tris propane pH 7.4, 100 mM LiCl, 37° C., gentle agitation, Thioflavin T fluorescence and/or fluorescence polarization
Experimental: Compounds were incubated with purified recombinant human α-synuclein (70 μM) in an aqueous buffer system (20 mM Bis-tris propane, pH 7.4, 100 mM LiCl) at 37° C. with gentle agitation. Structure formation was monitored by Thioflavin T fluorescence and/or fluorescence polarization. Thioflavin T fluorescence can be used to measure aggregation of amyloidogenic proteins, including α-synuclein (excitation, 440 nm; emission, 495 nm) (Naiki, H.; Higuchi, K.; Hosokawa, M.; Takeda, T., Fluorometric determination of amyloid fibrils in vitro using the fluorescent dye, thioflavin T1. Anal Biochem 1989, 177, (2), 244-9; incorporated herein by reference). Average molecular size was monitored by fluorescence polarization using human α-synuclein covalently conjugated to Alexa Fluor 594 (excitation, 546 nm; emission, 620 nm) (Luk, K. C.; Hyde, E. G.; Trojanowski, J. Q.; Lee, V. M., Sensitive fluorescence polarization technique for rapid screening of alpha-synuclein oligomerization/fibrillization inhibitors. Biochemistry 2007, 46, (44), 12522-9; incorporated herein by reference).

[5] = test system: dopaminergic neurons (primary rat embryonic midbrain culture) infected with lentivirus encoding human A53T α-synuclein; experiment: Primary neuronal toxicity assay; format: cell-based; details: for decrease of α-synuclein neurotoxicity in dopaminergic neurons (TH+ cells): E17 rat midbrain culture, A53T α-synuclein lentivirus, 3 days treatment
From the text: Indatraline decreased α-synuclein neurotoxicity in dopaminergic neurons. Midbrain cultures will be prepared from E17 rat ventral mesencephalon as described in a published protocol (Xu, J.; Kao, S. Y.; Lee, F. J.; Song, W.; Jin, L. W.; Yankner, B. A., Dopamine-dependent neurotoxicity of alpha-synuclein: a mechanism for selective neurodegeneration in Parkinson disease. Nat Med 2002, 8, (6), 600-6; incorporated herein by reference). Cultured cells were infected with a recombinant lentivirus encoding human A53T α-synuclein (A53T) or a control virus (none). Cells were treated with various concentrations of indatraline (black bars) for 3 days. Cells were then fixed and immunostained for Microtubule-associated protein 2, which stains all neurons, and Tyrosine Hydroxylase, a marker for dopaminergic neurons. Toxicity of A53T α-synuclein toward dopaminergic neurons was determined by calculating the percentage neurons positive for tyrosine hydroxylase (TH^+ cells).

Row | SMILES | suppression of α-synuclein-induced retinal degeneration (percent normal ommatidia) [1] | suppression of α-synuclein-induced retinal degeneration (percent normal ommatidia) ([1]; listed as indatraline) | binding site on alpha-synuclein by solution NMR [2] | binding to α-synuclein and effect on the rate of structure formation/aggregation in the presence of HFIP [3] | binding to α-synuclein and effect on the rate of structure formation/aggregation in the presence of HFIP ([3]; listed as indatraline) | delay of α-synuclein aggregation in aqueous solution [4] | delay of α-synuclein aggregation in aqueous solution ([4]; listed as indatraline) | decrease of α-synuclein neurotoxicity in dopaminergic neurons (TH+ cells) [5] | decrease of α-synuclein neurotoxicity in dopaminergic neurons (TH+ cells) ([5]; listed as indatraline) | pIC50 ([5]; Neuron, primary rat embryonic midbrain culture, FIG. 26B, read-out: IC50, reduction of alpha-synuclein toxicity in dopaminergic neurons)
1 | CN[C@@H]1C[C@@H](c2ccc(Cl)c(Cl)c2)c2ccccc21 [Indatraline, indatraline] | suppresses α-synuclein-induced retinal degeneration; also recorded: decreases α-synuclein-mediated retinal degeneration | reduced the toxicity of alpha-synuclein; also recorded: suppress α-synuclein-induced retinal degeneration | binds at a sequence near the C-terminus of alpha-synuclein | bind to α-synuclein and affect the rate of protein aggregation | binds to α-synuclein and affects the rate of structure formation | delay the initiation of α-synuclein aggregation | reduced the rate of alpha-synuclein fibrillization (and nucleation); also recorded: delays aggregation of α-synuclein in a dose-dependent manner | diminished toxicity of A53T α-synuclein toward dopaminergic neurons in a dose-dependent manner; also recorded: decreases α-synuclein neurotoxicity | reduced the toxicity of alpha-synuclein; also recorded: decrease α-synuclein neurotoxicity | ~6.30
2 | CN(C)C1CC(Cc2ccc(Cl)c(Cl)c2)c2ccccc21 (stereo not drawn) [LNK-122] |  |  |  | binds to α-synuclein and affects the rate of structure formation; also recorded: bind to α-synuclein and affect the rate of protein aggregation |  |  |  |  |  | 
3 | c1ccc(CNCC2CC(c3ccccc3)c3ccccc32)cc1 (stereo not drawn) [LNK-1521] |  |  |  | bind to α-synuclein and affect the rate of protein aggregation |  |  |  |  |  | 
